Test results taken from US20100029544A1, “Composition” (priority 2006, published 2010).
Values after ≈ are worked out from the molar mass of the structure shown. One block for each molecule: values may come before it.

How the values were obtained:
[1] = Loading of griseofulvin into QCPAA aggregates (solubilisation); format: physicochemical; details: thermodynamic from solid; excess drug sonicated in distilled water, filtered; read-out: intrinsic (aqueous) solubility of griseofulvin
Method: Drug loading was then achieved by probe sonication of the drugs in the presence of polymer aggregates in distilled water. Polymer, drug solutions with varying polymer: drug weight ratios were prepared. […] The aqueous solubility of griseofulvin was determined by sonicating excess drugs in distilled water. The solution was then filtered and analysed as described earlier. A griseofulvin calibration curve was prepared using various standard solutions (1-30 μgml^−1, R^2=0.993).

[2] = Loading of propofol into QCPAA or CePAA (solubilisation)
Method: Drug loading was carried out as described above. To determine the concentration of encapsulated drug, the solutions were filtered (0.45 μm) and the filtrates were dissolved in methanol and subsequently analysed using an ultraviolet-visible spectrophotometer at the wavelength of 272 nm. A propofol calibration graph was prepared using various standard solutions (0.012-0.16 mgml^−1, R^2=0.998). The filtered formulations were sized using photon correlation spectroscopy and imaged by scanning electron microscopy (SEM).

Caco-2 cells = experiment: Intracellular localisation study (PK4 fluorescence microscopy); format: cell-based, human; details: PK4 20 μM alone, 37° C.
Description: The intracellular polymer uptake was studied using an experimental anticancer drug named PK4 (bis-naphthalimidopropyl spermine). […] Due to the inherent fluorescence of PK4, the uptake of PK4 into cells can be visualised using Fluorescence Microscopy. Caco-2 cells (human colorectal cancer cells) were maintained in Dulbecco's Modified Eagle's Medium (DMEM) supplemented with 10% foetal calf serum (FCS), 1% non-essential amino acids and 1% L-glutamine and 1% penicillin/streptomycin at 10% CO2, 95% humidity and 37° C. […] The controls were 1) polymer only solutions (0.1 μml^−1), 2) PK4 only solutions (20 μM) and 3) medium. At specific time intervals the cells were photographed using a Leica DMRB fluorescence microscopy (Leica Microsystems, UK). The experiment above was repeated with the cells incubated at 4° C. instead of 37° C.

solubility [1]: 48.3 ± 1 µg/mL (≈ 137 µM)
Compound: COC1=CC(=O)C[C@@H](C)[C@]12Oc1c(Cl)c(OC)cc(OC)c1C2=O [griseofulvin]

Compound: CC(C)c1cccc(C(C)C)c1O [propofol]
solubility [2]: 112 µg/mL (≈ 628 µM)

Compound: O=C1c2cccc3cccc(c23)C(=O)N1CCCNCCCNCCCCNCCCNCCCN1C(=O)c2cccc3cccc(c23)C1=O [PK4, bis-naphthalimidopropyl spermine]
time until fluorescence was detected in cells (Caco-2 cells): 4.5 h
